Measurements from ChEMBL document CHEMBL1138420, “Discovery of adamantane ethers as inhibitors of 11beta-HSD-1: Synthesis and biological evaluation” (Bioorg Med Chem Lett, 2007).

Tested on: not listed separately
Assay: Metabolic stability in mouse liver microsome after 30 mins
Format: ADME
Conditions: liver microsomes, read-out: Stability

Row | remaining at 0.5 h | Compound
1 | 78% | CC(C)(Oc1ccc(Cl)cc1)C(=O)N[C@H]1C2CC3CC1C[C@](C(=O)NCC(N)=O)(C3)C2
2 | 57% | COc1ccc(OC(C)(C)C(=O)N[C@H]2C3CC4CC2C[C@](C(N)=O)(C4)C3)cc1
3 | 43% | CC(C)(Oc1ccc(Cl)cc1)C(=O)N[C@H]1C2CC3CC1C[C@](C(N)=O)(C3)C2
4 | 5% | CC(C)(Oc1ccc(Cl)cc1)C(=O)N[C@H]1C2CC3CC1C[C@](C(=O)NCc1cncs1)(C3)C2
5 | 87% | CC(C)(Oc1ccc(F)cc1Cl)C(=O)N[C@H]1C2CC3CC1C[C@](c1nnn[nH]1)(C3)C2
6 | 78% | CC(C)(Oc1ccccc1)C(=O)N[C@H]1C2CC3CC1C[C@](C(N)=O)(C3)C2

The remaining lines, values behind:

Row | Compound | remaining at 0.5 h
7 | CC(C)(Oc1ccc(Cl)cc1)C(=O)N[C@H]1C2CC3CC1C[C@](CO)(C3)C2 | 19%
8 | CC(C)(Oc1ccccc1)C(=O)N[C@H]1C2CC3CC1C[C@](C(=O)O)(C3)C2 | 98%
9 | CC(C)(Oc1ccc(Cl)cc1)C(=O)N[C@H]1C2CC3CC1C[C@](C(=O)O)(C3)C2 | 89%

Tested on: not listed separately
Assay: Plasma clearance in ob/ob mouse at 5 mg/kg, iv or 10 mg/kg, po
Format: ADME, organism-based
Conditions: not given

Row | clearance | Compound
10 | 4.2 L/h/kg | CC(C)(Oc1ccc(Cl)cc1)C(=O)N[C@H]1C2CC3CC1C[C@](C(N)=O)(C3)C2

Tested on: not listed separately
Assay: Half life in ob/ob mouse at 5 mg/kg, iv or 10 mg/kg, po
Format: ADME, organism-based
Conditions: in vivo

Row | half-life | Compound
11 | 18 min | CC(C)(Oc1ccc(Cl)cc1)C(=O)N[C@H]1C2CC3CC1C[C@](C(N)=O)(C3)C2

Tested on: not listed separately
Assay: Bioavailability in ob/ob mouse at 10 mg/kg
Format: ADME, organism-based
Conditions: in vivo, oral

Row | bioavailability | Compound
12 | 20% | CC(C)(Oc1ccc(Cl)cc1)C(=O)N[C@H]1C2CC3CC1C[C@](C(N)=O)(C3)C2

Target: 11-beta-hydroxysteroid dehydrogenase 1 (Mus musculus, UniProt P50172)
Assay: Inhibition of mouse 11beta-HSD1 by SPA
Conditions: not given

Sequence of 11-beta-hydroxysteroid dehydrogenase 1 (P50172 whole entry): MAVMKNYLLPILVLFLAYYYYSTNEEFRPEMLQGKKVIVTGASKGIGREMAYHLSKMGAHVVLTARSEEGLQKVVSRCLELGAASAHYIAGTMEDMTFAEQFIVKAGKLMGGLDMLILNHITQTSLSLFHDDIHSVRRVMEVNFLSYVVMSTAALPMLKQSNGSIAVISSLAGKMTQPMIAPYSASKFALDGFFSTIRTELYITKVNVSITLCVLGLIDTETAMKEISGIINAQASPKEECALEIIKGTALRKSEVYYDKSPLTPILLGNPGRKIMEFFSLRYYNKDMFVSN

Row | IC50 | Compound
13 | 4 nM | CC(C)(Oc1ccc(Cl)cc1)C(=O)N[C@H]1C2CC3CC1C[C@](C(=O)NCC(N)=O)(C3)C2
14 | 4 nM | COc1ccc(OC(C)(C)C(=O)N[C@H]2C3CC4CC2C[C@](C(N)=O)(C4)C3)cc1
15 | 3 nM | CC(C)(Oc1ccc(Cl)cc1)C(=O)N[C@H]1C2CC3CC1C[C@](C(N)=O)(C3)C2
16 | 11 nM | CC(C)(Oc1ccc(Cl)cc1)C(=O)N[C@H]1C2CC3CC1C[C@](C(=O)NCc1cncs1)(C3)C2
17 | 10 nM | CC(C)(Oc1ccc(F)cc1Cl)C(=O)N[C@H]1C2CC3CC1C[C@](c1nnn[nH]1)(C3)C2
18 | 4 nM | CC(C)(Oc1ccccc1)C(=O)N[C@H]1C2CC3CC1C[C@](C(N)=O)(C3)C2

Further lines, the compound ahead of its results:

Row | Compound | IC50
19 | CC(C)(Oc1ccc(Cl)cc1)C(=O)N[C@H]1C2CC3CC1C[C@](CO)(C3)C2 | 6 nM
20 | CNC(=O)NC(=O)[C@]12CC3CC(C1)[C@@H](NC(=O)C(C)(C)Oc1ccc(Cl)cc1)C(C3)C2 | 8 nM
21 | CC(C)(Oc1ccccc1)C(=O)N[C@H]1C2CC3CC1C[C@](C(=O)O)(C3)C2 | 119 nM
22 | CC(C)(Oc1ccc(Cl)cc1)C(=O)N[C@H]1C2CC3CC1C[C@](C(=O)O)(C3)C2 | 70 nM
